Common to all, as to test: Test C postemergence
The subject of one experiment is foxtail, green. The experiment is classed as in vivo, Setaria viridis. The following applies: for Plant response rating (0 to 100), Foxtail, Green: postemergence; for Plant response rating, Foxtail, Green: Postemergence, scale 0 to 100 (0 no effect, 100 complete control). From the text:
(§1) Seeds of plant species selected from blackgrass (Alopecurus myosuroides), Italian ryegrass (Lolium multiflorum), wheat, winter (winter wheat, Triticum aestivum), galium (catchweed bedstraw, Galium aparine), corn (Zea mays), large (Lg) crabgrass (Digitaria sanguinalis), giant foxtail (Setaria faberii), johnsongrass (Sorghum halepense), lambsquarters (Chenopodium album), morningglory (Ipomoea coccinea), yellow nutsedge (Cyperus esculentus), pigweed (Amaranthus retroflexus), ragweed (common ragweed, Ambrosia elatior), soybean (Glycine max), barnyardgrass (Echinochloa crus-galli), oilseed rape (Brassica napus), waterhemp (common waterhemp, Amaranthus rudis), kochia (Kochia scoparia), wild oat (Avena fatua), surinam grass (Brachiaria decumbens), foxtail, green (green foxtail, Setaria viridis), goosegrass (Eleusine indica), bromegrass, downy (downy bromegrass, Bromus tectorum), nightshade (eastern black nightshade, Solanum ptycanthum), cocklebur (common cocklebur, Xanthium strumarium), cupgrass, woolly (woolly cupgrass, Eriochloa villosa), bermudagrass (Cynodon dactylon), sunflower, (common oilseed sunflower, Helianthus annuus), Russian thistle (Salsola kali), and velvetleaf (Abutilon theophrasti) were planted into a blend of loam soil and sand and treated preemergence with test chemicals formulated in a non-phytotoxic solvent mixture which included a surfactant.
(§2) At the same time, plants selected from these crop and weed species and also barley, winter (winter barley, Hordeum vulgare), windgrass (Apera spica-venti), chickweed (common chickweed, Stellaria media), deadnettle (henbit deadnettle, Lamium amplexicaule), and canarygrass (littleseed canarygrass, Phalaris minor) were planted in pots containing Redi-Earth® planting medium (Scotts Company, 14111 Scottslawn Road, Marysville, Ohio 43041) comprising spaghnum peat moss, vermiculite, wetting agent and starter nutrients and treated with postemergence applications of test chemicals formulated in the same manner. Plants ranged in height from 2 to 18 cm (1- to 4-leaf stage) for postemergence treatments. Treated plants and controls were maintained in a greenhouse for 13 to 15 days, after which time all species were compared to controls and visually evaluated. Plant response ratings, summarized in Table C, are based on a scale of 0 to 100 where 0 is no effect and 100 is complete control. A dash (-) response means no test result.

Another experiment relates to cocklebur. It is filed as in vivo, Xanthium strumarium. Particulars: for Plant response rating (0 to 100), Cocklebur: postemergence; for Plant response rating, Cocklebur: Postemergence, scale 0 to 100 (0 no effect, 100 complete control).
From the text: as §1, §2

Another experiment relates to cupgrass, woolly. The experiment is classed as in vivo, Eriochloa villosa. The following applies: for Plant response rating (0 to 100), Cupgrass, Woolly: postemergence; for Plant response rating, Cupgrass, Woolly: Postemergence, scale 0 to 100 (0 no effect, 100 complete control).
From the text: as §1, §2

The subject of a further experiment is bermudagrass. It is filed as in vivo, Cynodon dactylon. Particulars: for Plant response rating (0 to 100), Bermudagrass: postemergence; for Plant response rating, Bermudagrass: Postemergence, scale 0 to 100 (0 no effect, 100 complete control).
From the text: as §1, §2

For a further experiment, the system named is barley, winter. It is filed as in vivo, Hordeum vulgare. The following applies: for Plant response rating (0 to 100), Barley: postemergence; for Plant response rating, Barley: Postemergence, scale 0 to 100 (0 no effect, 100 complete control).
From the text: as §1, §2

The subject of a further experiment is canarygrass. The experiment is classed as in vivo, Phalaris minor. The following applies: for Plant response rating (0 to 100), Canarygrass: postemergence; for Plant response rating, Canarygrass: Postemergence, scale 0 to 100 (0 no effect, 100 complete control).
From the text: as §1, §2

As to `Clc1cnn(-c2ccccc2Oc2ncc(Br)cn2)c1` [Compound 5, 5-bromo-2-[2-(4-chloro-1H-pyrazol-1-yl)phenoxy]pyrimidine], the “Plant response rating (0 to 100), Foxtail, Green” value with foxtail, green (125 g ai/ha) turned out to be 40; in the experiment with foxtail, green (250 g ai/ha), 70. Also, the “Plant response rating, Foxtail, Green” value is given as 0 with foxtail, green (31 g ai/ha, 13 to 15 days) and 40 in the experiment on foxtail, green (62 g ai/ha). Further, the “Plant response rating (0 to 100), Cocklebur” value with cocklebur (125 g ai/ha) worked out at 50; with cocklebur (250 g ai/ha), 65. Also, the “Plant response rating, Cocklebur” value in the experiment on cocklebur (31 g ai/ha, 13 to 15 days) is 25; with cocklebur (62 g ai/ha), 50. Moreover, the “Plant response rating (0 to 100), Cupgrass, Woolly” value turned out to be 10 with cupgrass, woolly (125 g ai/ha) and 30 with cupgrass, woolly (250 g ai/ha). Further, the “Plant response rating, Cupgrass, Woolly” value in the experiment on cupgrass, woolly (31 g ai/ha, 13 to 15 days) is reported as 0; with cupgrass, woolly (62 g ai/ha), 10. The figures for the “Plant response rating (0 to 100), Bermudagrass” value in the experiment on bermudagrass (125 g ai/ha) and with bermudagrass (250 g ai/ha) were 10 and 35, respectively. The “Plant response rating, Bermudagrass” value in the experiment on bermudagrass (31 g ai/ha, 13 to 15 days) is recorded as 0; in the experiment on bermudagrass (62 g ai/ha), 0. The “Plant response rating (0 to 100), Barley” value is given as 5 in the experiment with barley, winter (125 g ai/ha) and 10 in the experiment on barley, winter (250 g ai/ha). Moreover, the “Plant response rating, Barley” value with barley, winter (31 g ai/ha, 13 to 15 days) is given as 0; in the experiment with barley, winter (62 g ai/ha), 0. Also, the “Plant response rating (0 to 100), Canarygrass” value turned out to be 30 in the experiment on canarygrass (125 g ai/ha) and 40 in the experiment on canarygrass (250 g ai/ha). Also, the “Plant response rating, Canarygrass” value in the experiment with canarygrass (31 g ai/ha, 13 to 15 days) stood at 5; in the experiment with canarygrass (62 g ai/ha), 10.

For the origin of these results see US9695155B2, “Herbicidal substituted pyrimidinyloxy benzene compounds” (E. I. DU PONT DE NEMOURS AND COMPANY, priority 2013, dated 2017).
